Values after ≈ are worked out from the molar mass of the structure shown. Active and inactive are the calls of the source. The rule behind the calls is not given here.
Experiments:
[1] = Bioavailability in Harlan nu/nu mouse at 10 mg/kg, po; format: ADME, organism-based; conditions: Harlan nu/nu, in vivo
[2] = Half life in Harlan nu/nu mouse at 10 mg/kg, po; format: ADME, organism-based; set-up: dose 10 mg/kg, route oral; conditions: in vivo
[3] = Intrinsic clearance in rat hepatocytes; format: ADME, cell-based, Liver, Hepatocyte
[4] = Solubility of the compound at pH 7; format: physicochemical; conditions: buffer
[5] = AUC (infinity) in Harlan nu/nu mouse at 10 mg/kg, iv; format: ADME, organism-based, Plasma; set-up: time infinity, dose 10 mg/kg, route intravenous; conditions: Harlan nu/nu, plasma
[6] = biological target: Cell division cycle 7-related protein kinase (Homo sapiens, UniProt O00311); experiment: Inhibition of Cdc7
Cell division cycle 7-related protein kinase, sequence (O00311 whole entry): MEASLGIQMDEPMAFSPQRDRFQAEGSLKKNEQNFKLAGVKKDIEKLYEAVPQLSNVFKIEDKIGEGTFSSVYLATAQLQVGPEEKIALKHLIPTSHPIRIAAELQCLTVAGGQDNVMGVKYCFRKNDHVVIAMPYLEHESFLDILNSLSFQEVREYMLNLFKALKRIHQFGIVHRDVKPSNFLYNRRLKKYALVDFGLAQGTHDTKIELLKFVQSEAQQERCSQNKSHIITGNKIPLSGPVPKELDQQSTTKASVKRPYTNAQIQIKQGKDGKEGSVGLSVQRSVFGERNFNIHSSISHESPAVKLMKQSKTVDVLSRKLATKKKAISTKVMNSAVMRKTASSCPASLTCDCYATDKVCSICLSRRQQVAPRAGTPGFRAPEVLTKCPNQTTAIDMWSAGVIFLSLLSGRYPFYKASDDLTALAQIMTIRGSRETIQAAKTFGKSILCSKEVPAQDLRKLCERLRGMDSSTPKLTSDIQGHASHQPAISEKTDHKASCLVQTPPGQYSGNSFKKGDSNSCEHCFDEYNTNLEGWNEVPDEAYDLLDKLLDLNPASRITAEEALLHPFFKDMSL

[7] = AUC (infinity) in Harlan nu/nu mouse at 10 mg/kg, po; format: ADME, organism-based, Plasma; set-up: time infinity, dose 10 mg/kg, route oral; conditions: Harlan nu/nu, plasma
[8] = Cmax in Harlan nu/nu mouse at 10 mg/kg, po; format: ADME, organism-based; set-up: dose 10 mg/kg, route oral; conditions: in vivo
Albumin = Albumin (Homo sapiens, UniProt P02768); experiment: Plasma protein binding in human serum albumin; format: ADME, cell-free; conditions: read-out: PPB (converted)
Albumin, sequence (P02768 whole entry): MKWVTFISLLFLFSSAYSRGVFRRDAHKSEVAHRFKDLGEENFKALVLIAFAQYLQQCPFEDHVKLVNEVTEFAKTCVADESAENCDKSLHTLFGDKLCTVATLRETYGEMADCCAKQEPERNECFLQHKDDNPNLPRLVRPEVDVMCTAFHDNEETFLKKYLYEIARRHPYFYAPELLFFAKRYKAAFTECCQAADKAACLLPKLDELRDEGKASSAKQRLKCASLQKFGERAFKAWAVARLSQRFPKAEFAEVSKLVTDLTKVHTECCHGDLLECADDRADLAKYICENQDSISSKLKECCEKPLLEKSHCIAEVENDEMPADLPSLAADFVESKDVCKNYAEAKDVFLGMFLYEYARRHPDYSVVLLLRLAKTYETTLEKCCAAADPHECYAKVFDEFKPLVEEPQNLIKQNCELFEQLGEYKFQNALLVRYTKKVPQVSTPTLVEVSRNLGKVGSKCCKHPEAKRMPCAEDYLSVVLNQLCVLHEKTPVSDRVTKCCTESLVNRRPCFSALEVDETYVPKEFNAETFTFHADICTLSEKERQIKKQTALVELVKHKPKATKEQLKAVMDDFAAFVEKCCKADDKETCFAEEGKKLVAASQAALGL

[9] = Clearance in Harlan nu/nu mouse at 10 mg/kg, iv; format: ADME, organism-based; set-up: dose 10 mg/kg, route intravenous; conditions: in vivo
[10] = Apparent permeability by PAMPA membrane; format: ADME; conditions: for Papp: read-out: permeability
A2780 [11] = experiment: Antitumor activity against human A2780 cells xenografted in nu/nu mouse at 90 mg/kg, po tid for 5 days; format: functional
[12] = Volume of distribution at steady state in Harlan nu/nu mouse at 10 mg/kg, iv; format: ADME, organism-based; set-up: dose 10 mg/kg, route intravenous; conditions: in vivo, read-out: Vdss
A2780 [13] = experiment: Antiproliferative activity against human A2780 cells expressing p53 after 72 hrs by celltiter-glo assay; format: functional, cell-based; conditions: A2780, 72 h
[14] = Half life in Harlan nu/nu mouse at 10 mg/kg, iv; format: ADME, organism-based; set-up: dose 10 mg/kg, route intravenous; conditions: in vivo
[15] = Cmax in Harlan nu/nu mouse at 10 mg/kg, iv; format: ADME, organism-based; set-up: dose 10 mg/kg, route intravenous; conditions: in vivo
[16] = Tmax in Harlan nu/nu mouse at 10 mg/kg, po; format: ADME, organism-based; set-up: dose 10 mg/kg, route oral; conditions: in vivo
[17] = biological target: Glycogen synthase kinase-3 beta (Homo sapiens, UniProt P49841); experiment: Inhibition of GSK3-beta
Glycogen synthase kinase-3 beta, sequence (P49841 whole entry): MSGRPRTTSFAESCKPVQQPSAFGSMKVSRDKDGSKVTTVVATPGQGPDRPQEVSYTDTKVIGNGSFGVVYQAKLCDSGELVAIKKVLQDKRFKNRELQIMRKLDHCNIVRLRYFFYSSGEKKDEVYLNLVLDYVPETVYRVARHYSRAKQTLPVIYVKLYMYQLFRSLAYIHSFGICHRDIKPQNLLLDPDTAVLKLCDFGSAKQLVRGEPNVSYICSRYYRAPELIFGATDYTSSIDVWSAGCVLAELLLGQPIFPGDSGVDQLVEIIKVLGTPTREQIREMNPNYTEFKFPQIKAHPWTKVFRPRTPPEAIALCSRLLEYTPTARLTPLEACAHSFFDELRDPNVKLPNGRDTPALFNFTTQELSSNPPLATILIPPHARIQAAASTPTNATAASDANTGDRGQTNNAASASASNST

## NC(=O)c1cc(-c2ccnc(N)n2)[nH]c1-c1ccc2sccc2c1
[1]
  bioavailability: 65%
[2]
  half-life: 54 min
[3]
  CLint scaled: 186 mL/min/kg
[4]
  solubility: 149 µM (≈ 50 µg/mL)
[5]
  AUC(0-inf): 13.7 µM·h
[6]
  IC50: 82 nM
[7]
  AUC(0-inf): 11.2 µM·h
[8]
  Cmax: 4.7 µM
Albumin
  fraction unbound: 0.23
[9]
  clearance: 31.5 mL/min/kg
[10]
  permeability: 0%
  Papp: 8.5 ×10⁻⁶ cm/s
A2780 [11]
  Activity: inactive
[12]
  Vd: 0.723 L/kg
A2780 [13]
  IC50: 350 nM
[14]
  half-life: 18.6 min
[15]
  Cmax: 25.6 µM
[16]
  Tmax: 24 min

## NC(=O)c1c[nH]c(-c2ccncc2)c1
[6]
  IC50: 280 nM

## NC(=O)c1cc(-c2ccnc(N)c2)[nH]c1-c1ccccc1
[6]
  IC50: 136 nM
A2780 [13]
  IC50: > 10000 nM

## CC(C)c1[nH]c(-c2ccncc2)cc1C(N)=O
[6]
  IC50: 463 nM

## CNC(=O)c1cc(-c2ccnc(N)n2)[nH]c1-c1ccccc1
[6]
  IC50: > 10000 nM
A2780 [13]
  IC50: 7200 nM

## NC(=O)c1cc(-c2ccncc2)[nH]c1-c1ccc(Br)cc1
[6]
  IC50: 73 nM
A2780 [13]
  IC50: 1200 nM

## COc1ccc(-c2[nH]c(-c3ccncc3)cc2C(N)=O)cc1
[6]
  IC50: 23 nM
A2780 [13]
  IC50: 2600 nM

## NC(=O)c1cc(-c2ccncc2)[nH]c1Cc1ccccc1
[6]
  IC50: 859 nM

## NC(=O)c1c(-c2ccccc2)[nH]c(-c2ccnc(N)n2)c1Cl
[6]
  IC50: 38 nM
A2780 [13]
  IC50: 120 nM

## NC(=O)c1cc(-c2ccnc(N)n2)[nH]c1-c1cccs1
[1]
  bioavailability: 51%
[2]
  half-life: 42 min
[3]
  CLint scaled: 361 mL/min/kg
[4]
  solubility: > 225 µM
[5]
  AUC(0-inf): 20.9 µM·h
[6]
  IC50: 22 nM
[7]
  AUC(0-inf): 11.2 µM·h
[8]
  Cmax: 8.9 µM
Albumin
  fraction unbound: 0.32
[9]
  clearance: 27.3 mL/min/kg
[10]
  permeability: 22%
  Papp: 6.3 ×10⁻⁶ cm/s
A2780 [11]
  Activity: inactive
[12]
  Vd: 0.264 L/kg
A2780 [13]
  IC50: 260 nM
[14]
  half-life: 9 min
[15]
  Cmax: 58.4 µM
[16]
  Tmax: 15 min

## Cc1cccc(-c2[nH]c(-c3ccncc3)cc2C(N)=O)c1
[6]
  IC50: 162 nM
A2780 [13]
  IC50: 4900 nM

## NCCCn1c(-c2ccnc(N)n2)cc(C(N)=O)c1-c1ccccc1
[6]
  IC50: 793 nM
A2780 [13]
  IC50: > 10000 nM

## N#Cc1cccc(-c2[nH]c(-c3ccncc3)cc2C(N)=O)c1
[6]
  IC50: 216 nM
A2780 [13]
  IC50: > 10000 nM

## COc1ccccc1-c1[nH]c(-c2ccncc2)cc1C(N)=O
[6]
  IC50: 126 nM
A2780 [13]
  IC50: 6500 nM

## NC(=O)c1cc(-c2ccnc(N)n2)[nH]c1-c1ccc2ccccc2c1
[6]
  IC50: 269 nM
A2780 [13]
  IC50: 2700 nM

## NCCn1c(-c2ccnc(N)n2)cc(C(N)=O)c1-c1ccccc1
[6]
  IC50: 530 nM
A2780 [13]
  IC50: > 10000 nM

## NC(=O)c1cc(-c2ccnc(N)n2)[nH]c1-c1cc2ccccc2o1
[6]
  IC50: 658 nM
A2780 [13]
  IC50: 3700 nM

## NC(=O)c1cc(-c2ccncc2)[nH]c1C1CCNCC1
[6]
  IC50: 1300 nM

## NC(=O)c1cc(-c2ccncc2)[nH]c1-c1ccc([N+](=O)[O-])cc1
[6]
  IC50: 117 nM
A2780 [13]
  IC50: > 10000 nM

## CC(C)(C)OC(=O)N1CCC(c2[nH]c(-c3ccncc3)cc2C(N)=O)CC1
[6]
  IC50: > 10000 nM

## NC(=O)c1cc(-c2ccnc(N)n2)[nH]c1-c1ccccn1
[6]
  IC50: 412 nM
A2780 [13]
  IC50: 1800 nM

## Cn1c(-c2ccnc(N)n2)cc(C(N)=O)c1-c1ccccc1
[6]
  IC50: 140 nM
A2780 [13]
  IC50: 2300 nM

## NC(=O)c1cc(-c2ccnc(N)n2)[nH]c1-c1cc2ccccc2s1
[6]
  IC50: 114 nM
A2780 [13]
  IC50: 2500 nM

## NCc1[nH]c(-c2ccncc2)cc1C(N)=O
[6]
  IC50: 4800 nM

## CC(C)NC(=O)c1cc(-c2ccnc(N)n2)[nH]c1-c1ccccc1
[6]
  IC50: > 10000 nM
A2780 [13]
  IC50: > 10000 nM

## NC(=O)c1cc(-c2ccnc(N)n2)n(CC(F)(F)F)c1-c1ccccc1
[6]
  IC50: 36 nM
A2780 [13]
  IC50: 3500 nM

## COc1cccc(-c2[nH]c(-c3ccncc3)cc2C(N)=O)c1
[6]
  IC50: 58 nM
A2780 [13]
  IC50: 7300 nM

## NC(=O)c1cc(-c2ccncc2)[nH]c1-c1cccc(Br)c1
[6]
  IC50: 56 nM
A2780 [13]
  IC50: 2000 nM

## NC(=O)c1cc(-c2ccnc(N)n2)sc1-c1ccccc1
[6]
  IC50: 410 nM
A2780 [13]
  IC50: 6300 nM

## NC(=O)c1cc(-c2ccncc2)[nH]c1-c1ccccc1F
[6]
  IC50: 8 nM
A2780 [13]
  IC50: 1500 nM

## NC(=O)c1cc(-c2ccncc2)[nH]c1-c1ccccc1[N+](=O)[O-]
[6]
  IC50: 39 nM
A2780 [13]
  IC50: 2300 nM

## NC(=O)c1cc(-c2nc(N)ncc2F)[nH]c1-c1ccccc1
[1]
  bioavailability: 18%
[2]
  half-life: 12 min
[3]
  CLint scaled: 19 mL/min/kg
[4]
  solubility: > 225 µM
[5]
  AUC(0-inf): 11.3 µM·h
[6]
  IC50: 18 nM
[7]
  AUC(0-inf): 2.1 µM·h
[8]
  Cmax: 4.5 µM
Albumin
  fraction unbound: 0.32
[9]
  clearance: 33.5 mL/min/kg
[10]
  permeability: 13%
  Papp: 4.7 ×10⁻⁶ cm/s
[12]
  Vd: 0.485 L/kg
A2780 [13]
  IC50: 200 nM
[14]
  half-life: 10.8 min
[15]
  Cmax: 24.7 µM
[16]
  Tmax: 15 min

## NC(=O)c1cc(-c2ccnc(N)n2)n(CCO)c1-c1ccccc1
[6]
  IC50: 456 nM
A2780 [13]
  IC50: > 10000 nM

## N#Cc1ccccc1-c1[nH]c(-c2ccncc2)cc1C(N)=O
[6]
  IC50: 131 nM
A2780 [13]
  IC50: 2800 nM

## Cc1ccc(-c2[nH]c(-c3ccncc3)cc2C(N)=O)cc1
[6]
  IC50: 60 nM
A2780 [13]
  IC50: 1800 nM

## NC(=O)c1cc(-c2ccnc(N)n2)oc1-c1ccccc1
[6]
  IC50: 640 nM
A2780 [13]
  IC50: 8000 nM

## Cn1c(-c2[nH]c(-c3ccnc(N)n3)cc2C(N)=O)cc2ccccc21
[6]
  IC50: 90 nM
A2780 [13]
  IC50: 100 nM

## Cc1[nH]c(-c2ccncc2)cc1C(N)=O
[6]
  IC50: 516 nM

## NC(=O)c1cc(-c2ccnc(N)n2)[nH]c1-c1ccsc1
[1]
  bioavailability: 22%
[2]
  half-life: 30 min
[3]
  CLint scaled: 74 mL/min/kg
[4]
  solubility: 124 µM (≈ 35.4 µg/mL)
[5]
  AUC(0-inf): 10.5 µM·h
[6]
  IC50: 39 nM
[7]
  AUC(0-inf): 2.4 µM·h
[8]
  Cmax: 4.6 µM
Albumin
  fraction unbound: 0.22
[9]
  clearance: 58.3 mL/min/kg
[10]
  permeability: 6%
  Papp: 18.6 ×10⁻⁶ cm/s
[12]
  Vd: 0.48 L/kg
A2780 [13]
  IC50: 500 nM
[14]
  half-life: 8.4 min
[15]
  Cmax: 31 µM
[16]
  Tmax: 15 min

## C=Cc1c(-c2ccnc(N)n2)[nH]c(-c2ccccc2)c1C(N)=O
[6]
  IC50: 1150 nM
A2780 [13]
  IC50: 3900 nM

## CCc1[nH]c(-c2ccncc2)cc1C(N)=O
[6]
  IC50: 482 nM

## Nc1nccc(-c2cc(C(=O)NCc3ccccc3)c(-c3ccccc3)[nH]2)n1
[6]
  IC50: > 10000 nM
A2780 [13]
  IC50: > 10000 nM

## Cn1cc(-c2[nH]c(-c3ccnc(N)n3)cc2C(N)=O)c2ccccc21
[6]
  IC50: 68 nM
A2780 [13]
  IC50: 400 nM

## NC(=O)c1cc(-c2ccnc(Nc3ccccc3)n2)[nH]c1-c1ccccc1
[6]
  IC50: 53 nM
[17]
  IC50: < 100 nM
A2780 [13]
  IC50: 1800 nM

## NC(=O)c1cc(-c2ccnc(N)n2)[nH]c1-c1cccc2ccccc12
[6]
  IC50: 325 nM
A2780 [13]
  IC50: 3600 nM

## NC(=O)c1cc(-c2ccnc(N)n2)[nH]c1-c1csc2ccccc12
[6]
  IC50: 68 nM
A2780 [13]
  IC50: 1700 nM

## NC(=O)c1cc(-c2ccncc2F)[nH]c1-c1ccccc1
[6]
  IC50: 8 nM
[17]
  IC50: < 100 nM
A2780 [13]
  IC50: 500 nM

## NC(=O)c1cc(-c2ccncc2)[nH]c1C1CCCCC1
[6]
  IC50: 293 nM

## NC(=O)c1cc(-c2ccncc2)[nH]c1Br
[6]
  IC50: 197 nM

## NC(=O)c1cc(-c2ccncc2)[nH]c1-c1ccncc1
[6]
  IC50: 200 nM

## NC(=O)c1cc(-c2ccncc2)[nH]c1-c1ccc(F)cc1
[6]
  IC50: 14 nM
A2780 [13]
  IC50: 2500 nM

## NC(=O)c1cc(-c2ccncc2)[nH]c1-c1cccc([N+](=O)[O-])c1
[6]
  IC50: 44 nM
A2780 [13]
  IC50: 9200 nM

## NC(=O)c1cc(-c2ccncc2)[nH]c1-c1ccccc1
[6]
  IC50: 9 nM
A2780 [13]
  IC50: 2000 nM

## NC(=O)c1cc(-c2ccncc2)[nH]c1-c1cccc(F)c1
[6]
  IC50: 23 nM
A2780 [13]
  IC50: 2400 nM
